Measured values from publication PMC7876056, “Population Pharmacokinetic Analysis of Yimitasvir in Chinese Healthy Volunteers and Patients With Chronic Hepatitis C Virus Infection” (Frontiers in Pharmacology, 2021).
“And” between values parts separate entries of the source, which are not always exact repeats. Identical values can stand only once. “Also recorded” adds a separate entry of the source. Like-named read-outs stand apart in the source and are kept apart here.

Key:
[1] = test system: cytochrome P450 (CYP) 2C8; conditions: cited from earlier work
[2] = test system: chronic HCV genotype 1 infection; assay: Phase 2 study of yimitasvir with sofosbuvir in patients with chronic HCV infection; assay type: in vivo, human; conditions: for Adverse reaction rate: with 400 mg sofosbuvir
Method: In phase 2 study, yimitasvir 100 or 200 mg was administered once daily for 12 weeks in combination with 400 mg sofosbuvir in patients with chronic HCV infection. […] The primary endpoint of phase 2 study was sustained virologic response [HCV RNA less than lower limit of quantification (LLOQ)] 12 (SVR12) weeks after the completion of treatment. SVR12 rates were achieved 100% in both 100 mg yimitasvir/400 mg sofobuvir and 200 mg yimitasvir/400 mg sofobuvir groups. […] The most common adverse reactions were neutropenia (3.9%), leukopenia (3.1%), hypercholesterolemia (3.1%) and fatigue (3.1%).
(§1) The current population PK analysis of yimitasvir was performed using rich and sparse PK samples collected from six clinical pharmacology trials [4 phase 1 ([Zhao et al., 2019]), 1 phase 1b ([Zhang et al., 2018]) and 1 phase 2 studies] in Chinese healthy volunteers and HCV-infected patients. Rich sampling entailed serial blood sampling at defined time points, and sparse sampling (single sample) only in phase 2 study entailed blood collection at every study visits. Patients with genotype 1 HCV infection were eligible, while patients with prior use of direct-acting antiviral agents (DAA) for HCV infection treatment were excluded in phase 1b and phase 2 studies.

[3] = rats; cited from earlier work
[4] = mice; cited from earlier work
human plasma proteins = conditions: independent of drug concentration over 100–2000 ng ml^−1; cited from earlier work
CYP 2C9 = conditions: cited from earlier work
[5] = Population pharmacokinetic model (Phoenix NLME, FOCE-ELS) of yimitasvir in Chinese healthy volunteers and HCV infection patients; assay type: in vivo, human
Method: as §1
A fully validated liquid chromatography-tandem mass spectrometry (LC-MS/MS) method determining yimitasvir concentration in phase 1 and phase 1b studies had been reported elsewhere ([Zhang et al., 2018]; [Zhao et al., 2019]).
Plasma concentration of yimitasvir in phase 2 study was analyzed using a validated LC-MS/MS method equipped with a Shimadzu LC-30AD liquid chromatography-SCIEX API6500 mass spectrometer. Chromatographic retention and separation were achieved on a XBridge Peptide BEH C18, 50 × 2.1 mm, 3.5 μm column. Gradient elution was used with 2 mM ammonium acetate in water with 0.1% formic acid as mobile phase A and acetonitrile:methanol (30:70, v:v) as mobile phase B at a flow rate of 0.5 ml min^−1. The column temperature was maintained at 45°C. Quantitation was accomplished in positive mode with precursor-to-production pairs of m/z 428.5→315.3 for yimitasvir and m/z 432.5→319.5 for the internal standard d8-DAG (isotope-labelled yimitasvir), respectively.
Population pharmacokinetic analysis of yimitasvir was performed by Phoenix NLME software (Version 8.1, Certara) using the first-order conditional estimation-extended least squares (FOCE-ELS) method.
The structural model was first tested by fitting a one-compartment or two-compartment model to the log-transformed PK data. Different absorption models including first-order absorption with or without a lag time, sequential zero-first order absorption, transit absorption and saturable Michaelis-Menten absorption model, were also tested. The optimal structural model was selected based on the Akaike Information Criteria (AIC), minimization success, visual inspection of goodness-of-fit plots and individual fit.
Inter-subject variability was estimated by exponential model for PK parameters as follows (Eq. 1): θi=θTV×e^ηi, (1) where θi is the parameter estimation for the ith individual, θTV is the typical value of the parameter estimation in the population, ηi is a random variable which assumed to be normally distributed with a mean of 0 and a variance of ω^2. Proportional error model and proportional plus additive error model were tested as residual error models.
Sigmoidal maximum effect (Emax) (Eq. 2) and linear models (Eq. 3) were tested to quantify the relationship between bioavailability and dose: {F=θF ,Dose≤100 mgF=θF−Fmax×(Dose−100)/(F50+(Dose−100)),Dose>100 mg, (2) where θF is the bioavailability in individuals who received ≤100 mg yimitasvir, which was fixed to 1. Fmax is the maximal reduction in bioavailability and F50 is the dose associated with a half-maximal reduction in bioavailability. {F=θF ,Dose≤100 mgF=θF −Alpha×(Dose−100)/100,Dose>100 mg, (3) where Alpha is a slope term determining the relative change in bioavailability for each 100 mg increase in yimitasvir dose.
Subsequently, different covariates were tested using a stepwise forward inclusion [a decrease in objective function value (OFV) of > 6.63, p < 0.01] and a stricter backward exclusion procedure (an increase in OFV of > 10.83, p < 0.001). […]

CYP3A4 = conditions: cited from earlier work
CYP 3A4 = conditions: cited from earlier work
[6] = 100 or 200 mg with 400 mg sofosbuvir
[7] = final model estimate (RSE%), food = 2, high-fat meal

In the case of COC(=O)NC(C(=O)N1CCCC1c1ncc(-c2ccc(-c3ccc(-c4ccc5nc(C6CCCN6C(=O)C(NC(=O)OC)C(C)C)[nH]c5c4)c4c3C3CCC4C3)cc2)[nH]1)C(C)C (stereo not shown) [yimitasvir], the “Inhibition of CYP2C8” value [1] is listed as “weak inhibitor”, the Adverse reaction rate ([2]; 100 mg group) is listed as 35.9% and the SVR12 rate ([2]; 100 mg yimitasvir/400 mg sofosbuvir once daily for 12 weeks) is listed as 100%. The Adverse reaction rate ([2]; 200 mg group) was 36.9%, the SVR12 rate ([2]; 200 mg yimitasvir/400 mg sofosbuvir once daily for 12 weeks) was 100% and the “Effect of co-medication of sofosbuvir on PK profile” value ([2]; 400 mg sofosbuvir) was “did not affect; also recorded: not affected by co-medication of sofosbuvir”. The “Adverse reaction: fatigue” value [2, 6] was 3.1%, the “Adverse reaction: hypercholesterolemia” value [2, 6] was 3.1% and the “Adverse reaction: leukopenia” value [2, 6] was 3.1%. For the same compound, the “Adverse reaction: neutropenia” value [2, 6] was 3.9%, the “Severity of adverse reactions” value ([2]; most common adverse reactions) was “grade 1 or 2; also recorded: grade one or two” and the “Dose proportionality of exposure” value ([2]; patients, 100 or 200 mg with 400 mg sofosbuvir) was “Less than dose proportionality”. For the same compound, the “SVR12 rate (primary endpoint)” value ([2]; phase 2 study overall, taken at least 2 h before or after a meal in most patients) was 100%, the “Metabolism in hepatic microsomes” value [3] was “No metabolism” and the “Metabolism in hepatic microsomes” value [4] was “No metabolism”. The “Bound to human plasma proteins” value (human plasma proteins) was 79.2–86.6%, the “Inhibition of CYP2C9” value (CYP 2C9) was “does not inhibit” and the “Relative bioavailability of 200 mg to 100 mg” value ([5]; according to the final model) was 87.1%. The “Relative bioavailability of 400 mg to 100 mg” value ([5]; according to the final model) was 61.3%, the “CL/F ∼ ALT (covariate coefficient, power)” value ([5]; bootstrap mean) was −0.0955 (−15.3) and the “CL/F ∼ Female (covariate coefficient)” value ([5]; bootstrap mean) was −0.250 (−14.6). For the same compound, the “F ∼ Food1 (covariate coefficient)” value ([5]; bootstrap mean) was −0.312 (−34.9), the “F ∼ Food2 (covariate coefficient)” value ([5]; bootstrap mean) was −0.473 (−19.8) and the “Ka ∼ Food1 (covariate coefficient)” value ([5]; bootstrap mean) was −1.72 (−10.5). The “Ka ∼ Food2 (covariate coefficient)” value ([5]; bootstrap mean) was −2.43 (−7.4), the “Random effect CL/F (inter-individual variability)” value ([5]; bootstrap mean) was 0.483 (5.8) and the “Random effect CL/F ∼ V1/F (covariance)” value ([5]; bootstrap mean) was 0.562 (8.1). For the same compound, the “Random effect V1/F (inter-individual variability)” value ([5]; bootstrap mean) was 0.729 (11.0), the “Residual error σ (proportional)” value ([5]; bootstrap mean) was 0.304 (3.4) and the “Td ∼ Patient (covariate coefficient)” value ([5]; bootstrap mean) was −0.403 (−27.9). For the same compound, the CL/F ([5]; bootstrap mean (n = 1,000)) was 13.8 (3.7) l h^−1, the Ka ([5]; bootstrap mean (n = 1,000)) was 1.38 (13.7) h^−1 and the Q/F ([5]; bootstrap mean (n = 1,000)) was 4.04 (16.8) l h^−1. For the same compound, the Td ([5]; bootstrap mean (n = 1,000)) was 2.22 (7.2) h, the V1/F ([5]; bootstrap mean (n = 1,000)) was 189 (5.6) l and the V2/F ([5]; bootstrap mean (n = 1,000)) was 59.1 (9.1) l. For the same compound, the “Effect of age and BW on PK properties” value ([5]; covariate screening) was “no effect”, the “Decrease of bioavailability (F) for each 100 mg dose increase” value ([5]; dose > 100 mg, linear model) was 12.9% and the “Covariance of inter-individual variability of CL/F and V1/F” value ([5]; final model) was 56.5%. The “Inter-individual variability for CL/F” value ([5]; final model) was 48.5%, the “Inter-individual variability for V1/F” value ([5]; final model) was 73.6% and the “CL/F ∼ Female (covariate coefficient)” value ([5]; final model estimate (RSE%)) was −0.251 (−14.2). The Q/F ([5]; final model estimate (RSE%)) was 3.96 (14.7) l h^−1, the “Random effect CL/F (inter-individual variability)” value ([5]; final model estimate (RSE%)) was 0.485 (3.8) and the “Random effect CL/F ∼ V1/F (covariance)” value ([5]; final model estimate (RSE%)) was 0.565 (5.1). For the same compound, the “Random effect V1/F (inter-individual variability)” value ([5]; final model estimate (RSE%)) was 0.736 (6.9), the “Residual error σ (proportional)” value ([5]; final model estimate (RSE%)) was 0.305 (0.7) and the “Td ∼ Patient (covariate coefficient)” value ([5]; final model estimate (RSE%)) was −0.416 (−10.7). For the same compound, the V2/F ([5]; final model estimate (RSE%)) was 58.6 (6.9) l, the “CL/F ∼ ALT (covariate coefficient, power)” value ([5]; final model estimate (RSE%), baseline ALT normalised to median) was −0.0950 (−21.2) and the Ka ([5]; final model estimate (RSE%), first-order absorption rate, typical healthy male volunteer, ALT 31.6 IU l^−1, fasted) was 1.31 (7.2) h^−1. For the same compound, the “Ka ∼ Food1 (covariate coefficient)” value ([5]; final model estimate (RSE%), food = 1, evening, fasted at least 4 h after dinner) was −1.71 (−5.5), the “F ∼ Food1 (covariate coefficient)” value ([5]; final model estimate (RSE%), food = 1, fasted at least 4 h) was −0.341 (−26.3) and the “F ∼ Food2 (covariate coefficient)” value [5, 7] was −0.485 (−31.2). For the same compound, the “Ka ∼ Food2 (covariate coefficient)” value [5, 7] was −2.40 (−3.7), the “Td (duration of zero-order absorption)” value ([5]; final model estimate (RSE%), healthy volunteers) was 2.17 h and 2.17 (4.4) h and the “CL/F (apparent oral clearance)” value ([5]; final model estimate (RSE%), typical healthy male volunteer, ALT 31.6 IU l^−1, fasted) was 13.8 l h^−1 and 13.8 (4.1) l h^−1. For the same compound, the “Higher CL/F in male subjects than females” value ([5]; human, in vivo) was 22.2%, the Vd/F ([5]; human, plasma, oral, final model estimate (RSE%), typical healthy male volunteer, ALT 31.6 IU l^−1, fasted, read-out: V1/F (central volume of distribution)) was 188 L and the “Zero-order absorption duration (Td)” value ([5]; patients) was 1.43 h. The “Decrease of F by high-fat meal” value ([5]; vs fasted) was 38.5%, the “Decrease of Ka by high-fat meal” value ([5]; vs fasted) was 90.9% and the “Induction of CYP3A4” value (CYP3A4) was “may be a weak inducer”. The “Inhibition of CYP3A4” value (CYP 3A4) was “does not inhibit”.
